The numbers were not newly measured in patent US7605180B2, “Nateglinide-containing preparation” (Ajinomoto Co., Inc., priority 2000, dated 2009), which cites them from elsewhere.

One data set deals with blood glucose. As to conditions: oral administration.

As for `CC(C)[C@H]1CC[C@H](C(=O)N[C@H](Cc2ccccc2)C(=O)O)CC1` [nateglinide, N-(trans-4-isopropylcyclohexylcarbonyl)-D-phenylalanine], the Water solubility result was “poorly water soluble”. Moreover, the Blood glucose-lowering effect result in the data set with blood glucose is “excellent blood glucose-lowering effect”.
